From patent US10287297B2, “Epoxyazulene derivatives useful for treating cancer and diabetes” (The United States of America, as represented by the …, priority 2015, dated 2019)

Columns and labels:
Format in all cases: cell-based
HL-60(TB) = test: NCI 60 cell assay, leukemia HL-60(TB); conditions: Homo sapiens, 48 h; HL-60(TB) (leukemia); drug exposure two days, SRB endpoint; read-out: GI-50 value
Description: (§1) Samples were tested in the standard National Cancer Institute 60-cell line protocol. First, they were tested against all 60 cell lines in a single final concentration of 10 micromolar. Then, they were separately tested in five 10-fold dilutions. The drug exposure was two days, with an SRB endpoint.

MDA-MB-435 = test: NCI 60 cell assay, melanoma MDA-MB-435; conditions: Homo sapiens, 48 h; MDA-MB-435 (melanoma); drug exposure two days, SRB endpoint; read-out: GI-50 value
Description: as §1

U251 = test: NCI 60 cell assay, CNS U251; conditions: Homo sapiens, U-251, 48 h, drug exposure two days, SRB endpoint, read-out: GI-50 value
Description: as §1

NCI-H322M = test: NCI 60 cell assay, NSCLC NCI-H322M; conditions: Homo sapiens, 48 h, drug exposure two days, SRB endpoint, read-out: GI-50 value
Description: as §1

ACHN = test: NCI 60 cell assay, renal ACHN; conditions: Homo sapiens, 48 h, drug exposure two days, SRB endpoint, read-out: GI-50 value
Description: as §1

NCI-H226 = test: NCI 60 cell assay, NSCLC NCI-H226; conditions: Homo sapiens, 48 h, drug exposure two days, SRB endpoint, read-out: GI-50 value
Description: as §1

SR = test: NCI 60 cell assay, leukemia SR; conditions: Homo sapiens, 48 h, drug exposure two days, SRB endpoint, read-out: GI-50 value
Description: as §1

BT-549 = test: NCI 60 cell assay, breast BT-549; conditions: Homo sapiens, 48 h; BT-549 (breast); drug exposure two days, SRB endpoint; read-out: GI-50 value
Description: as §1

HOP-62 = test: NCI 60 cell assay, NSCLC HOP-62; conditions: Homo sapiens, 48 h; HOP-62 (NSCLC); drug exposure two days, SRB endpoint; read-out: GI-50 value
Description: as §1

HOP-92 = test: NCI 60 cell assay, NSCLC HOP-92; conditions: Homo sapiens, 48 h; HOP-92 (NSCLC); drug exposure two days, SRB endpoint; read-out: GI-50 value
Description: as §1

HCT-116 = test: NCI 60 cell assay, colon HCT-116; conditions: Homo sapiens, 48 h; HCT-116 (colon); drug exposure two days, SRB endpoint; read-out: GI-50 value
Description: as §1

NCI/ADR-RES = test: NCI 60 cell assay, ovarian NCI/ADR-RES; conditions: Homo sapiens, 48 h, drug exposure two days, SRB endpoint, read-out: GI-50 value
Description: as §1

UO-31 = test: NCI 60 cell assay, renal UO-31; conditions: Homo sapiens, 48 h; UO-31 (renal); drug exposure two days, SRB endpoint; read-out: GI-50 value
Description: as §1

COLO 205 = test: NCI 60 cell assay, colon COLO 205; conditions: Homo sapiens, 48 h; COLO 205 (colon); drug exposure two days, SRB endpoint; read-out: GI-50 value
Description: as §1

IGROV1 = test: NCI 60 cell assay, ovarian IGROV1; conditions: Homo sapiens, IGROV-1, 48 h, drug exposure two days, SRB endpoint, read-out: GI-50 value
Description: as §1

LOX IMVI = test: NCI 60 cell assay, melanoma LOX IMVI; conditions: Homo sapiens, 48 h, drug exposure two days, SRB endpoint, read-out: GI-50 value
Description: as §1

SN12C = test: NCI 60 cell assay, renal SN12C; conditions: Homo sapiens, 48 h, drug exposure two days, SRB endpoint, read-out: GI-50 value
Description: as §1

HCT-15 = test: NCI 60 cell assay, colon HCT-15; conditions: Homo sapiens, 48 h; HCT-15 (colon); drug exposure two days, SRB endpoint; read-out: GI-50 value
Description: as §1

HT29 = test: NCI 60 cell assay, colon HT29; conditions: Homo sapiens, HT-29, 48 h, drug exposure two days, SRB endpoint, read-out: GI-50 value
Description: as §1

SK-MEL-5 = test: NCI 60 cell assay, melanoma SK-MEL-5; conditions: Homo sapiens, 48 h; SK-MEL-5 (melanoma); drug exposure two days, SRB endpoint; read-out: GI-50 value
Description: as §1

OVCAR-3 = test: NCI 60 cell assay, ovarian OVCAR-3; conditions: Homo sapiens, 48 h; OVCAR-3 (ovarian); drug exposure two days, SRB endpoint; read-out: GI-50 value
Description: as §1

MDA-MB-468 = test: NCI 60 cell assay, breast MDA-MB-468; conditions: Homo sapiens, 48 h; MDA-MB-468 (breast); drug exposure two days, SRB endpoint; read-out: GI-50 value
Description: as §1

SF-268 = test: NCI 60 cell assay, CNS SF-268; conditions: Homo sapiens, 48 h; SF-268 (CNS); drug exposure two days, SRB endpoint; read-out: GI-50 value
Description: as §1

OVCAR-4 = test: NCI 60 cell assay, ovarian OVCAR-4; conditions: Homo sapiens, 48 h; OVCAR-4 (ovarian); drug exposure two days, SRB endpoint; read-out: GI-50 value
Description: as §1

MCF7 = test: NCI 60 cell assay, breast MCF7; conditions: Homo sapiens, 48 h, drug exposure two days, SRB endpoint, read-out: GI-50 value
Description: as §1

SK-OV-3 = test: NCI 60 cell assay, ovarian SK-OV-3; conditions: Homo sapiens, 48 h; SK-OV-3 (ovarian); drug exposure two days, SRB endpoint; read-out: GI-50 value
Description: as §1

A549/ATCC = test: NCI 60 cell assay, NSCLC A549/ATCC; conditions: Homo sapiens, 48 h, drug exposure two days, SRB endpoint, read-out: GI-50 value
Description: as §1

MDA-MB-231/ATCC = test: NCI 60 cell assay, breast MDA-MB-231/ATCC; conditions: Homo sapiens, 48 h; MDA-MB-231/ATCC (breast); drug exposure two days, SRB endpoint; read-out: GI-50 value
Description: as §1

| SMILES | GI50 (HL-60(TB)) [µM] | GI50 (MDA-MB-435) [µM] | GI50 (U251) [µM] | GI50 (NCI-H322M) [µM] | GI50 (ACHN) [nM] | GI50 (NCI-H226) [µM] | GI50 (SR) [µM] | GI50 (BT-549) [µM] | GI50 (HOP-62) [µM] | GI50 (HOP-92) [µM] | GI50 (HCT-116) [µM] | GI50 (NCI/ADR-RES) [µM] | GI50 (UO-31) [µM] | GI50 (COLO 205) [µM] | GI50 (IGROV1) [µM] | GI50 (LOX IMVI) [µM] | GI50 (SN12C) [µM] | GI50 (HCT-15) [µM] | GI50 (HT29) [µM] | GI50 (SK-MEL-5) [µM] | other results |
| --- | --- | --- | --- | --- | --- | --- | --- | --- | --- | --- | --- | --- | --- | --- | --- | --- | --- | --- | --- | --- | --- |
| CC1=C2[C@@H](CC1)[C@]1(C)O[C@@](C(C)C)(C[C@H]1OC(=O)CO)[C@H]2OC(=O)C1CC1c1ccccc1 (stereo partly drawn) [Compound (Ij), (3aR,4S,5R,7R,8S)-5-(2-hydroxyacetoxy)-7-isopropyl-1,4-dimethyl-2,3,3a,4,5,6,7,8-octahydro-4,7-epoxyazulen-8-yl-2-phenylcyclopropane-1-carboxylate] | 14 | 15 | 15 | 19 | 1400 | 17 | 14 | 14 | 17 | 13 | 19 | 12 | 11 | 17 | 19 | 15 | 7.4 | 13 | 13 | 16 | GI50 (OVCAR-3): 14 µM; GI50 (MDA-MB-468): 13 µM; GI50 (SF-268): 14 µM; GI50 (OVCAR-4): 14 µM; GI50 (MCF7): 8.9 µM; GI50 (SK-OV-3): 17 µM; GI50 (A549/ATCC): 13 µM; GI50 (MDA-MB-231/ATCC): 15 µM |
| CC1=C2[C@@H](CC1)[C@]1(C)O[C@@](C3CC3)(C[C@H]1OC(=O)CO)[C@H]2OC(=O)C=Cc1ccccc1 [Compound (Is), (3aR,4S,5R,7R,8S)-7-cyclopropyl-5-(2-hydroxyacetoxy)-1,4-dimethyl-2,3,3a,4,5,6,7,8-octahydro-4,7-epoxyazulen-8-yl cinnamate] | 12 | 17 | 15 | 17 | 28 | 17 | 17 | 0.21 | 16 | 17 | 16 | 0.071 | 0.33 | 19 | 19 | 17 | 0.052 | 14 | 17 | 18 | GI50 (OVCAR-3): 16 µM; GI50 (MDA-MB-468): 15 µM; GI50 (SF-268): 1.6 µM; GI50 (OVCAR-4): 15 µM; GI50 (MCF7): 13 µM; GI50 (SK-OV-3): 16 µM; GI50 (A549/ATCC): 14 µM; GI50 (MDA-MB-231/ATCC): 18 µM |
